Experimental data as given in PubChem BioAssay (NCI).
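Cultured in 96-well plates, cells were exposed to test compound for 48 hours across five concentrations. Definition used: TGI = concentration required for complete inhibition of growth.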

Legend:
Assay in all cases: NCI-60 cell line screen, 48 h
RXF 393 renal = system: RXF 393 renal
SK-MEL-2 melanoma = system: SK-MEL-2 melanoma
786-0 renal = system: 786-0 renal
MDA-MB-231 breast = system: MDA-MB-231 breast
CAKI-1 renal = system: CAKI-1 renal
HCC-2998 colon = system: HCC-2998 colon
CCRF-CEM leukemia = system: CCRF-CEM leukemia
NCI-H226 lung = system: NCI-H226 lung
COLO 205 colon = system: COLO 205 colon
K-562 leukemia = system: K-562 leukemia

| SMILES | TGI (RXF 393 renal) [µM] | TGI (SK-MEL-2 melanoma) [µM] | TGI (786-0 renal) [µM] | TGI (MDA-MB-231 breast) [µM] | TGI (CAKI-1 renal) [µM] | TGI (HCC-2998 colon) [µM] | TGI (CCRF-CEM leukemia) [µM] | TGI (NCI-H226 lung) [µM] | TGI (COLO 205 colon) [µM] | TGI (K-562 leukemia) [µM] |
| --- | --- | --- | --- | --- | --- | --- | --- | --- | --- | --- |
| CCOC(=O)/C(C#N)=C/c1ccc2c(-c3c(OCC)ccc4cc(/C=C(\C#N)C(=O)OCC)ccc34)c(OCC)ccc2c1 | > 100 | > 100 | > 100 | 56.1 | > 100 | > 100 | > 100 | > 100 | > 100 | > 100 |
| CN(C)c1nc(N(C)C)nc(N(C)C)n1 | > 150 | > 150 | > 150 | > 150 | > 140 | > 123 | > 150 | > 150 | > 150 | > 150 |
| CCN1CC2=C(N=c3s/c(=C\c4ccc(Cl)cc4)c(=O)n3C2c2ccc(Cl)cc2)/C(=C/c2ccc(Cl)cc2)C1 (stereo not given) | 15.4 | > 100 | 55.2 | > 100 | > 100 | > 100 | > 100 | > 100 | > 100 | > 100 |
| Cn1c(=O)oc2cc(C(=O)CSC(=S)N3CCCCCC3)ccc21 | > 100 | > 100 | > 100 | > 100 | > 100 | > 100 | > 100 | > 100 | > 100 | > 100 |
| CCOC(=O)C1C(=O)CC(O)(OCC)C(C(=O)OCC)C1c1ccc(OC)cc1 (stereo not given) | > 100 | > 100 | > 100 | > 100 | > 100 | > 100 | > 100 | > 100 | > 100 | > 100 |
| Brc1cccc(/C=C/CN2CCN(CCOC(c3ccccc3)c3ccccc3)CC2)c1 | 24.6 | 33.6 | 31.7 | 29.1 | 30.2 | 21.3 | 29.5 | 38.2 | 36.2 | 28.6 |
| CCOC(=O)c1nc2cc(N3CCOCC3)c(F)cc2[nH]c1=O | > 100 | > 100 | > 100 | > 100 | > 100 | > 100 | > 100 | > 100 | > 100 | > 100 |
| C[C@]12CC[C@@H]3c4ccc(O)cc4CC[C@H]3[C@@H]1C/C(=C\c1ccc([N+](=O)[O-])cc1)C2=O | 50.4 | > 100 | > 100 | > 100 | > 100 | > 100 | > 100 | > 100 | > 100 | > 100 |
| CCOC(=O)CN1CCNCCN(CC(=O)OCC)CCNCC1 | > 100 | > 100 | > 100 | > 100 | > 100 | > 100 | > 100 | > 100 | > 100 | > 100 |
| COC(=O)c1ccccc1C1CN=NC12Cc1ccc3ccccc3c1C2=O (stereo not given) | > 100 | > 100 | > 100 | > 100 | > 100 | > 100 | > 100 | > 100 | > 100 | > 100 |
| CCOC(=O)c1cc2cc(N(C(C)=O)C(C)=O)ccc2s1 | 42.7 | 51.6 | > 100 | 58.7 | > 100 | > 100 | > 100 | 47.8 | > 100 | 87 |
| O=C(O)CC(C(=O)O)c1ccccc1[N+](=O)[O-] (stereo not given) | > 100 | > 100 | > 100 | > 100 | > 100 | > 100 | > 100 | > 100 | > 100 | > 100 |
| Cc1ccc(-c2c(C#N)c(-c3ccc(Cl)cc3)c(C#N)c(=O)n2NS(=O)(=O)c2ccccc2)cc1 | > 100 | > 100 | > 100 | > 100 | > 100 | > 100 | > 100 | > 100 | > 100 | > 100 |
| COc1ccc2c(c1)C(N)CC2=O (stereo not given) | 36.3 | 74.1 | > 100 | > 100 | > 100 | > 100 | > 100 | > 100 | > 100 | > 100 |
| NCc1ccc(-c2ccc(-c3ccc(-c4ccc(CN)s4)s3)s2)s1 | > 100 | > 100 | > 100 | > 100 | > 100 | > 100 | > 100 | > 100 | > 100 | > 100 |
